Results as given in patent US20220401450A1, “PEDIATRIC FORMULATIONS FOR TREATMENT OF CANCER” (CELGENE CORPORATION, priority 2019, published 2022).
Peptide text beside a SMILES is read from it.

experiment: Accelerated stability study of blends: chemical compatibility of sweeteners with Compound 1B (assay potency); format: physicochemical
Experimental: The chemical compatibility between these excipients and Compound 1B was evaluated through an accelerated stability study. The formulation samples were prepared as blends, then stored at 25° C./60% RH and 40° C./75% RH for up to four weeks.
Chemical stability of the blends was evaluated both in the presence and absence of high-intensity sweeteners, and the results are summarized in Table 2.

| Chemical stability (compatibility with Compound 1B) | SMILES |
| --- | --- |
| Compatible | CC1=CC(=O)[N-]S(=O)(=O)O1.[K+] [Acesulfame-K] |
| Compatible | COC(=O)[C@H](Cc1ccccc1)NC(=O)[C@@H](N)CC(=O)O [Aspartame] (H-Asp-Phe-OMe) |
| Incompatible | O=C1NS(=O)(=O)c2ccccc21 [Saccharin] |
| Compatible | OC[C@H]1O[C@H](O[C@]2(CCl)O[C@H](CCl)[C@@H](O)[C@@H]2O)[C@H](O)[C@@H](O)[C@H]1Cl [Sucralose] |
